Measured values reported in ChEMBL document CHEMBL1201862, “PubChem BioAssay data set” (2004).
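These data come from cells grown in 96-well plates and exposed to compound for 48 hours at five concentrations. At the GI50, growth is halved.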 Activity calls are given as the source filed them. No stated cut-off is given here; in the data, active = GI50 up to about 1.1 µM and inactive = higher.

What was measured:
Test in all cases: inhibition of tumour cell growth, NCI panel, 48 h
SNB-75 = test system: SNB-75
DU-145 = test system: DU-145
NCI-H522 = test system: NCI-H522
786-0 = test system: 786-0
RPMI-8226 = test system: RPMI-8226
SW-620 = test system: SW-620
T47D = test system: T47D
SF-268 = test system: SF-268
Malme-3M = test system: Malme-3M
K562 = test system: K562
UACC-257 = test system: UACC-257
A498 = test system: A498
SR = test system: SR
COLO 205 = test system: COLO 205
MOLT-4 = test system: MOLT-4
NCI-H23 = test system: NCI-H23
SF-295 = test system: SF-295
SK-OV-3 = test system: SK-OV-3
UACC-62 = test system: UACC-62
HCC 2998 = test system: HCC 2998

Measured: GI50

O=C(O)c1ccccc1NCn1c(=S)sc2ccccc21
inactive: SNB-75 > 100 µM | DU-145 37.2 µM | NCI-H522 27 µM | 786-0 54.3 µM | RPMI-8226 32.3 µM | SW-620 36 µM | T47D 37.1 µM | SF-268 45.5 µM | Malme-3M 35.5 µM | K562 > 100 µM | UACC-257 31.8 µM | A498 > 100 µM | SR 29.6 µM | COLO 205 25.7 µM | MOLT-4 35.1 µM | NCI-H23 28.2 µM | SF-295 45.6 µM | SK-OV-3 > 100 µM | UACC-62 44.3 µM

Cc1nc(N)nc2ccccc12
inactive: SNB-75 60 µM | DU-145 > 100 µM | NCI-H522 > 100 µM | 786-0 > 100 µM | RPMI-8226 > 100 µM | SW-620 > 100 µM | T47D > 100 µM | SF-268 > 100 µM | Malme-3M > 100 µM | K562 > 100 µM | UACC-257 > 100 µM | A498 > 100 µM | SR > 100 µM | MOLT-4 > 100 µM | NCI-H23 > 100 µM | SF-295 > 100 µM | SK-OV-3 > 100 µM | UACC-62 > 100 µM

CC1(c2ccc(Cl)cc2)C=C(c2ccc(Cl)cc2)C(C#N)=C(C(C#N)C#N)N1.CNC (centres undefined)
inactive: SNB-75 18.8 µM | DU-145 16.1 µM | 786-0 13.8 µM | HCC 2998 16.3 µM | RPMI-8226 34.4 µM | SW-620 12.7 µM | T47D 14.2 µM | SF-268 10.7 µM | Malme-3M 14.1 µM | K562 19.2 µM | UACC-257 17.5 µM | A498 17.9 µM | SR 15.7 µM | COLO 205 14.5 µM | MOLT-4 13.6 µM | NCI-H23 15.3 µM | SF-295 17.6 µM | SK-OV-3 17.1 µM | UACC-62 14.1 µM

CCCCCCCCCCCCN1[C@H]2CCC[C@H]2C(O)[C@@H]2CCC[C@@H]21 (some centres undefined)
inactive: SNB-75 > 100 µM | DU-145 > 100 µM | 786-0 > 100 µM | HCC 2998 > 100 µM | RPMI-8226 > 100 µM | SW-620 > 100 µM | T47D 29.2 µM | SF-268 > 100 µM | K562 > 100 µM | UACC-257 > 100 µM | A498 > 100 µM | SR 41 µM | COLO 205 > 100 µM | MOLT-4 > 100 µM | NCI-H23 42.6 µM | SK-OV-3 > 100 µM | UACC-62 > 100 µM

Cc1c(NC(=S)N/N=C\C(=N/NC(=S)Nc2c(C)n(C)n(-c3ccccc3)c2=O)c2ccccc2)c(=O)n(-c2ccccc2)n1C
inactive: SNB-75 > 100 µM | DU-145 > 100 µM | 786-0 > 100 µM | HCC 2998 > 100 µM | SW-620 > 100 µM | T47D > 100 µM | SF-268 > 100 µM | Malme-3M 87.1 µM | UACC-257 > 100 µM | A498 > 100 µM | SR > 100 µM | COLO 205 > 100 µM | MOLT-4 > 100 µM | NCI-H23 > 100 µM | SF-295 > 100 µM | SK-OV-3 > 100 µM | UACC-62 > 100 µM

COc1ccc2c(c1)C(N)=C(c1ccccc1OC)C2=O
inactive: SNB-75 64.3 µM | DU-145 > 100 µM | 786-0 > 100 µM | HCC 2998 > 100 µM | RPMI-8226 > 100 µM | SW-620 > 100 µM | T47D > 100 µM | SF-268 > 100 µM | Malme-3M > 100 µM | K562 > 100 µM | UACC-257 > 100 µM | A498 > 100 µM | SR 29.9 µM | COLO 205 > 100 µM | MOLT-4 75.7 µM | NCI-H23 > 100 µM | SF-295 > 100 µM | SK-OV-3 > 100 µM | UACC-62 77.8 µM
